Reference: PubChem BioAssay (NCI)
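GI50 is the concentration that inhibits growth by half. TGI: total growth inhibition.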

Legend:
Assay in all cases: NCI anticancer screen, dose series, 384-well format
[1] = tested on: 786-0 renal
[2] = tested on: A498 renal
[3] = tested on: A549 NSCLC
[4] = tested on: ACHN renal
[5] = tested on: BT-549 breast
[6] = tested on: CAKI-1 renal
[7] = tested on: CCRF-CEM leukemia
[8] = tested on: COLO 205 colon
[9] = tested on: DU-145 prostate
[10] = tested on: EKVX NSCLC
[11] = tested on: HCC-2998 colon
[12] = tested on: HCT-116 colon
[13] = tested on: HCT-15 colon
[14] = tested on: HL-60(TB) leukemia
[15] = tested on: HOP-62 NSCLC
[16] = tested on: HOP-92 NSCLC
[17] = tested on: HS 578T breast
[18] = tested on: HT29 colon
[19] = tested on: IGROV1 ovarian
[20] = tested on: K-562 leukemia
[21] = tested on: KM12 colon
[22] = tested on: LOX IMVI melanoma
[23] = tested on: M14 melanoma
[24] = tested on: MALME-3M melanoma
[25] = tested on: MCF7 breast
[26] = tested on: MDA-MB-231 breast
[27] = tested on: MDA-MB-435 melanoma
[28] = tested on: MDA-MB-468 breast
[29] = tested on: MOLT-4 leukemia
[30] = tested on: NCI-H226 lung
[31] = tested on: NCI-H23 lung
[32] = tested on: NCI-H322M lung
[33] = tested on: NCI-H460 NSCLC
[34] = tested on: NCI-H522 lung
[35] = tested on: NCI/ADR-RES ovarian
[36] = tested on: OVCAR-3 ovarian
[37] = tested on: OVCAR-4 ovarian
[38] = tested on: OVCAR-5 ovarian
[39] = tested on: OVCAR-8 ovarian
[40] = tested on: PC-3 prostate
[41] = tested on: RPMI-8226 leukemia
[42] = tested on: RXF 393 renal
[43] = tested on: SF-268 CNS
[44] = tested on: SF-295 CNS
[45] = tested on: SF-539 CNS
[46] = tested on: SK-MEL-2 melanoma
[47] = tested on: SK-MEL-28 melanoma
[48] = tested on: SK-MEL-5 melanoma
[49] = tested on: SK-OV-3 ovarian
[50] = tested on: SN12C renal
[51] = tested on: SNB-19 CNS
[52] = tested on: SNB-75 CNS
[53] = tested on: SW-620 colon
[54] = tested on: T-47D breast
[55] = tested on: TK-10 renal
[56] = tested on: U251 glioblastoma
[57] = tested on: UACC-62 melanoma
[58] = tested on: UO-31 renal

Cn1nccc1Nc1nccc(-c2cc3c(s2)C(C)(C)N(CCN2CCOCC2)C3=O)n1
GI50 [1]: 90.9 µM
TGI [1]: > 100 µM
GI50 [2]: 5.15 µM
TGI [2]: > 100 µM
GI50 [3]: 2.45 µM
TGI [3]: > 100 µM
GI50 [4]: 16.9 µM
TGI [4]: > 100 µM
GI50 [5]: 13.8 µM
TGI [5]: > 100 µM
GI50 [6]: 3.31 µM
TGI [6]: > 100 µM
GI50 [7]: 34.2 µM
TGI [7]: > 100 µM
GI50 [8]: 0.194 µM
TGI [8]: 5.35 µM
GI50 [9]: 23.6 µM
TGI [9]: > 100 µM
GI50 [10]: > 100 µM
TGI [10]: > 100 µM
GI50 [11]: 0.308 µM
TGI [11]: 17.1 µM
GI50 [12]: 0.404 µM
TGI [12]: > 100 µM
GI50 [13]: 23.1 µM
TGI [13]: > 100 µM
GI50 [14]: 0.264 µM
TGI [14]: 10.1 µM
GI50 [15]: 8.17 µM
TGI [15]: > 100 µM
GI50 [16]: 4.27 µM
TGI [16]: > 100 µM
GI50 [17]: 49.4 µM
TGI [17]: > 100 µM
GI50 [18]: 0.618 µM
TGI [18]: > 100 µM
GI50 [19]: 3.52 µM
TGI [19]: > 100 µM
GI50 [20]: 4.74 µM
TGI [20]: > 100 µM
GI50 [21]: 1.69 µM
TGI [21]: > 100 µM
GI50 [22]: 0.345 µM
TGI [22]: 1.55 µM
GI50 [23]: 0.157 µM
TGI [23]: 0.905 µM
GI50 [24]: 0.0557 µM
TGI [24]: 0.296 µM
GI50 [25]: 21.2 µM
TGI [25]: > 100 µM
GI50 [26]: 3.5 µM
TGI [26]: > 100 µM
GI50 [27]: 0.402 µM
TGI [27]: 50.9 µM
GI50 [28]: 19.3 µM
TGI [28]: 89 µM
GI50 [29]: 46 µM
TGI [29]: > 100 µM
GI50 [30]: 14.2 µM
TGI [30]: > 100 µM
GI50 [31]: 0.301 µM
TGI [31]: 9.1 µM
GI50 [32]: 7.59 µM
TGI [32]: > 100 µM
GI50 [33]: 4.26 µM
TGI [33]: > 100 µM
GI50 [34]: 1.65 µM
TGI [34]: 20.8 µM
GI50 [35]: > 100 µM
TGI [35]: > 100 µM
GI50 [36]: 51.4 µM
TGI [36]: > 100 µM
GI50 [37]: > 100 µM
TGI [37]: > 100 µM
GI50 [38]: 0.989 µM
TGI [38]: > 100 µM
GI50 [39]: 34.8 µM
TGI [39]: > 100 µM
GI50 [40]: 55.4 µM
TGI [40]: > 100 µM
GI50 [41]: 2.23 µM
TGI [41]: 8.87 µM
GI50 [42]: > 100 µM
TGI [42]: > 100 µM
GI50 [43]: 50.9 µM
TGI [43]: > 100 µM
GI50 [44]: > 100 µM
TGI [44]: > 100 µM
GI50 [45]: 28.2 µM
TGI [45]: > 100 µM
GI50 [46]: 0.372 µM
TGI [46]: 1.45 µM
GI50 [47]: 0.177 µM
TGI [47]: 0.797 µM
GI50 [48]: 0.619 µM
TGI [48]: > 100 µM
GI50 [49]: 25.2 µM
TGI [49]: > 100 µM
GI50 [50]: 39.2 µM
TGI [50]: > 100 µM
GI50 [51]: 64.7 µM
TGI [51]: > 100 µM
GI50 [52]: > 100 µM
TGI [52]: > 100 µM
GI50 [53]: 0.756 µM
TGI [53]: > 100 µM
GI50 [54]: > 100 µM
TGI [54]: > 100 µM
GI50 [55]: 3.46 µM
TGI [55]: > 100 µM
GI50 [56]: 25.9 µM
TGI [56]: > 100 µM
GI50 [57]: 0.138 µM
TGI [57]: 1.76 µM
GI50 [58]: 9.2 µM
TGI [58]: > 100 µM
